In BindingDB's records for doi:10.1016/s0960-894x(00)00026-3 (Universit&#224, 2000) one finds Ki data, which are given here for 42 compounds.

pKi: −log10 of the molar value.

This experiment is described as follows: Inhibition of Clostridium histolyticum collagenase using a linear regression program.
For the compound `CC(C(=O)NO)N(Cc1ccc([N+](=O)[O-])cc1)S(=O)(=O)C(F)(F)C(F)(F)C(F)(F)C(F)(F)F` (configuration not stated) [2-(N-(4-nitrobenzyl)-2,2,12,12,15,15,18,18,18-nonafluorobutan-2-ylsulfonamido)-N-hydroxypropanamide], the pKi (usually −log10 of the Ki, conventionally taken in molar units) is 4.96.
`CC(C(=O)NO)N(Cc1ccc([N+](=O)[O-])cc1)C(=O)Nc1ccc(F)cc1F` (configuration not stated) [2-[3-(2,4-Difluoro-phenyl)-1-(4-nitro-benzyl)-ureido]-N-hydroxy-propionamide]: the pKi is 4.82.
As for `CC(C(=O)O)N(Cc1ccc([N+](=O)[O-])cc1)C(=O)Nc1ccc(F)cc1F` (configuration not stated) [2-[3-(2,4-Difluoro-phenyl)-1-(4-nitro-benzyl)-ureido]-propionic acid], the negative-log Ki (pKi) is 5.21.
`CC(C(=O)NO)N(Cc1ccc([N+](=O)[O-])cc1)C(=O)Nc1ccc(Cl)c(Cl)c1` (configuration not stated) [2-[3-(3,4-Dichloro-phenyl)-1-(4-nitro-benzyl)-ureido]-N-hydroxy-propionamide] had a negative logarithm of the Ki (pKi) of 4.89.
In the case of `CC(C(=O)O)N(Cc1ccc([N+](=O)[O-])cc1)C(=O)Nc1ccc(Cl)c(Cl)c1` (configuration not stated) [2-[3-(3,4-Dichloro-phenyl)-1-(4-nitro-benzyl)-ureido]-propionic acid], the negative-log Ki (pKi) was 5.30.
Compound `CC(C(=O)NO)N(Cc1ccc([N+](=O)[O-])cc1)C(=O)Nc1cccc(Cl)c1` (configuration not stated) [2-[3-(3-Chloro-phenyl)-1-(4-nitro-benzyl)-ureido]-N-hydroxy-propionamide] showed a pKi of 4.85.
Regarding `CC(C(=O)O)N(Cc1ccc([N+](=O)[O-])cc1)C(=O)Nc1cccc(Cl)c1` (configuration not stated) [2-[3-(3-Chloro-phenyl)-1-(4-nitro-benzyl)-ureido]-propionic acid], the pKi was 5.21.
With `CC(C(=O)NO)N(Cc1ccc([N+](=O)[O-])cc1)C(=O)Nc1ccc(Cl)cc1` (configuration not stated) [2-[3-(4-Chloro-phenyl)-1-(4-nitro-benzyl)-ureido]-N-hydroxy-propionamide] the figure was 4.74; with `CC(C(=O)O)N(Cc1ccc([N+](=O)[O-])cc1)C(=O)Nc1ccc(Cl)cc1` (configuration not stated) [2-[3-(4-Chloro-phenyl)-1-(4-nitro-benzyl)-ureido]-propionic acid], 5.19.
`CC(C(=O)NO)N(Cc1ccc([N+](=O)[O-])cc1)C(=O)Nc1ccc(F)cc1` (configuration not stated) [2-[3-(4-Fluoro-phenyl)-1-(4-nitro-benzyl)-ureido]-N-hydroxy-propionamide] had a pKi of 4.92. This pKi is 0.27 log units lower than that of the compound before.
`CC(C(=O)O)N(Cc1ccc([N+](=O)[O-])cc1)C(=O)Nc1ccc(F)cc1` (configuration not stated) [2-[3-(4-Fluoro-phenyl)-1-(4-nitro-benzyl)-ureido]-propionic acid]: the negative logarithm of the Ki (pKi) is 5.27.
Compound `CC(C(=O)NO)N(Cc1ccc([N+](=O)[O-])cc1)C(=S)NC(=O)c1ccccc1` (configuration not stated) [2-[3-Benzoyl-1-(4-nitro-benzyl)-thioureido]-N-hydroxy-propionamide] showed a negative logarithm of the Ki (pKi) of 5.22.
The value for `CC(C(=O)O)N(Cc1ccc([N+](=O)[O-])cc1)C(=S)NC(=O)c1ccccc1` (configuration not stated) [2-[3-Benzoyl-1-(4-nitro-benzyl)-thioureido]-propionic acid] was 6.05; that for `CC(C(=O)O)N(Cc1ccc([N+](=O)[O-])cc1)C(=O)Nc1cccc2ccccc12` (configuration not stated) [2-[3-Naphthalen-1-yl-1-(4-nitro-benzyl)-ureido]-propionic acid] was 5.34; that for `CC(C(=O)NO)N(Cc1ccc([N+](=O)[O-])cc1)Sc1ccc([N+](=O)[O-])cc1[N+](=O)[O-]` (configuration not stated) [2-[(2,4-Dinitro-phenylsulfanyl)-(4-nitro-benzyl)-amino]-N-hydroxy-propionamide] was 5.05.
Consider `CC(C(=O)O)N(Cc1ccc([N+](=O)[O-])cc1)Sc1ccc([N+](=O)[O-])cc1[N+](=O)[O-]` (configuration not stated) [2-[(2,4-Dinitro-phenylsulfanyl)-(4-nitro-benzyl)-amino]-propionic acid], for which the pKi was 5.29.
Compound `CC(C(=O)NO)N(Cc1ccc([N+](=O)[O-])cc1)S(=O)(=O)c1cc(Cl)ccc1Cl` (configuration not stated) [2-[(2,5-Dichloro-benzenesulfonyl)-(4-nitro-benzyl)-amino]-N-hydroxy-propionamide] gave a pKi of 4.89. Compared with the last compound, the pKi is 0.40 log units lower.
For `CC(C(=O)O)N(Cc1ccc([N+](=O)[O-])cc1)S(=O)(=O)c1cc(Cl)ccc1Cl` (configuration not stated) [2-[(2,5-Dichloro-benzenesulfonyl)-(4-nitro-benzyl)-amino]-propionic acid], the pKi was 5.44.
Regarding `CC(C(=O)O)N(Cc1ccc([N+](=O)[O-])cc1)S(=O)(=O)c1ccccc1[N+](=O)[O-]` (configuration not stated) [2-[(2-Nitro-benzenesulfonyl)-(4-nitro-benzyl)-amino]-propionic acid], the negative logarithm of the Ki (pKi) is 5.32.
With `CC(C(=O)NO)N(Cc1ccc([N+](=O)[O-])cc1)S(=O)(=O)c1cc(Cl)cc(Cl)c1O` (configuration not stated) [2-[(3,5-Dichloro-2-hydroxy-benzenesulfonyl)-(4-nitro-benzyl)-amino]-N-hydroxy-propionamide] the figure was 4.92; with `CC(C(=O)O)N(Cc1ccc([N+](=O)[O-])cc1)S(=O)(=O)c1cc(Cl)cc(Cl)c1O` (configuration not stated) [2-[(3,5-Dichloro-2-hydroxy-benzenesulfonyl)-(4-nitro-benzyl)-amino]-propionic acid], 5.60.
Turning to `CC(C(=O)O)N(Cc1ccc([N+](=O)[O-])cc1)S(=O)(=O)c1ccc([N+](=O)[O-])c(Cl)c1` (configuration not stated) [2-[(3-Chloro-4-nitro-benzenesulfonyl)-(4-nitro-benzyl)-amino]-propionic acid], the pKi was 5.48. The pKi values of the last two compounds are within 0.2 log units of each other.
`CC(C(=O)O)N(Cc1ccc([N+](=O)[O-])cc1)S(=O)(=O)c1cccc([N+](=O)[O-])c1` (configuration not stated) [2-[(3-Nitro-benzenesulfonyl)-(4-nitro-benzyl)-amino]-propionic acid] had a negative logarithm of the Ki (pKi) of 5.26.
For the compound `COc1ccc(S(=O)(=O)N(Cc2ccc([N+](=O)[O-])cc2)C(C)C(=O)O)cc1NC(=O)OC(C)(C)C` (configuration not stated) [2-[(3-tert-Butoxycarbonylamino-4-methoxy-benzenesulfonyl)-(4-nitro-benzyl)-amino]-propionic acid], the negative-log Ki (pKi) is 5.68.
As for `CC(C(=O)O)N(Cc1ccc([N+](=O)[O-])cc1)S(=O)(=O)c1cccc(NC(=O)OC(C)(C)C)c1` (configuration not stated) [2-[(3-tert-Butoxycarbonylamino-benzenesulfonyl)-(4-nitro-benzyl)-amino]-propionic acid], the pKi is 5.59. The pKi values of the last two compounds are within 0.2 log units of each other.
With `CC(=O)c1ccc(S(=O)(=O)N(Cc2ccc([N+](=O)[O-])cc2)C(C)C(=O)NO)cc1` (configuration not stated) [2-[(4-Acetyl-benzenesulfonyl)-(4-nitro-benzyl)-amino]-N-hydroxy-propionamide] the figure was 5.05; with `CC(=O)c1ccc(S(=O)(=O)N(Cc2ccc([N+](=O)[O-])cc2)C(C)C(=O)O)cc1` (configuration not stated) [2-[(4-Acetyl-benzenesulfonyl)-(4-nitro-benzyl)-amino]-propionic acid], 5.68; with `CC(=O)Nc1ccc(S(=O)(=O)N(Cc2ccc([N+](=O)[O-])cc2)C(C)C(=O)NO)cc1` (configuration not stated) [2-[(4-Acetylamino-benzenesulfonyl)-(4-nitro-benzyl)-amino]-N-hydroxy-propionamide], 4.96.
The value for `CC(=O)Nc1ccc(S(=O)(=O)N(Cc2ccc([N+](=O)[O-])cc2)C(C)C(=O)O)cc1` (configuration not stated) [2-[(4-Acetylamino-benzenesulfonyl)-(4-nitro-benzyl)-amino]-propionic acid] was 5.51.
With `CC(C(=O)NO)N(Cc1ccc([N+](=O)[O-])cc1)S(=O)(=O)c1ccc(Br)cc1` (configuration not stated) [2-[(4-Bromo-benzenesulfonyl)-(4-nitro-benzyl)-amino]-N-hydroxy-propionamide] the figure was 4.52; with `CC(C(=O)O)N(Cc1ccc([N+](=O)[O-])cc1)S(=O)(=O)c1ccc(Br)cc1` (configuration not stated) [2-[(4-Bromo-benzenesulfonyl)-(4-nitro-benzyl)-amino]-propionic acid], 5.00.
As to `CC(C(=O)NO)N(Cc1ccc([N+](=O)[O-])cc1)S(=O)(=O)c1ccc(Cl)cc1` (configuration not stated) [2-[(4-Chloro-benzenesulfonyl)-(4-nitro-benzyl)-amino]-N-hydroxy-propionamide], the pKi was 4.49.
In turn, `CC(C(=O)O)N(Cc1ccc([N+](=O)[O-])cc1)S(=O)(=O)c1ccc(Cl)cc1` (configuration not stated) [2-[(4-Chloro-benzenesulfonyl)-(4-nitro-benzyl)-amino]-propionic acid] had a pKi of 5.05.
Take `CC(C(=O)NO)N(Cc1ccc([N+](=O)[O-])cc1)S(=O)(=O)c1ccc(F)cc1` (configuration not stated) [2-[(4-Fluoro-benzenesulfonyl)-(4-nitro-benzyl)-amino]-N-hydroxy-propionamide]: the pKi was 4.46.
Turning to `CC(C(=O)O)N(Cc1ccc([N+](=O)[O-])cc1)S(=O)(=O)c1ccc(F)cc1` (configuration not stated) [2-[(4-Fluoro-benzenesulfonyl)-(4-nitro-benzyl)-amino]-propionic acid], the pKi is 5.00.
In the case of `CC(C(=O)O)N(Cc1ccc([N+](=O)[O-])cc1)S(=O)(=O)c1ccc(I)cc1` (configuration not stated) [2-[(4-Iodo-benzenesulfonyl)-(4-nitro-benzyl)-amino]-propionic acid], the pKi was 4.92.
As for `COc1ccc(S(=O)(=O)N(Cc2ccc([N+](=O)[O-])cc2)C(C)C(=O)O)cc1` (configuration not stated) [2-[(4-Methoxy-benzenesulfonyl)-(4-nitro-benzyl)-amino]-propionic acid], the negative-log Ki (pKi) was 5.28.
Take `CC(C(=O)O)N(Cc1ccc([N+](=O)[O-])cc1)S(=O)(=O)c1ccc([N+](=O)[O-])cc1` (configuration not stated) [2-[(4-Nitro-benzenesulfonyl)-(4-nitro-benzyl)-amino]-propionic acid]: the pKi is 5.28.
`Cc1cc(C)c(S(=O)(=O)N(Cc2ccc([N+](=O)[O-])cc2)C(C)C(=O)O)c(C)c1` (configuration not stated) [2-[(4-Nitro-benzyl)-(2,4,6-trimethyl-benzenesulfonyl)-amino]-propionic acid]: the pKi is 5.22.
In turn, `CC(C(=O)O)N(Cc1ccc([N+](=O)[O-])cc1)Sc1ccccc1[N+](=O)[O-]` (configuration not stated) [2-[(4-Nitro-benzyl)-(2-nitro-phenylsulfanyl)-amino]-propionic acid] gave a negative logarithm of the Ki (pKi) of 5.20.
The compound `CC(C(=O)O)N(Cc1ccc([N+](=O)[O-])cc1)S(=O)(=O)c1cccc(C(F)(F)F)c1` (configuration not stated) [2-[(4-Nitro-benzyl)-(3-trifluoromethyl-benzenesulfonyl)-amino]-propionic acid] gave a pKi of 6.52.
`CC(C(=O)O)N(Cc1ccc([N+](=O)[O-])cc1)Sc1ccc([N+](=O)[O-])cc1` (configuration not stated) [2-[(4-Nitro-benzyl)-(4-nitro-phenylsulfanyl)-amino]-propionic acid] gave a negative logarithm of the Ki (pKi) of 5.26.
